PubChem BioAssay (NCI)
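Assay format: 96-well plates, 48-hour exposure. At the TGI there is no net growth.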

What was measured:
Assay in all cases: NCI anticancer screen, dose series, 48 h
A498 renal = system: A498 renal
DU-145 prostate = system: DU-145 prostate
OVCAR-4 ovarian = system: OVCAR-4 ovarian
SNB-75 CNS = system: SNB-75 CNS
K-562 leukemia = system: K-562 leukemia
SK-MEL-28 melanoma = system: SK-MEL-28 melanoma
MOLT-4 leukemia = system: MOLT-4 leukemia
ACHN renal = system: ACHN renal
TK-10 renal = system: TK-10 renal
HCT-116 colon = system: HCT-116 colon
LOX IMVI melanoma = system: LOX IMVI melanoma
M14 melanoma = system: M14 melanoma
HCT-15 colon = system: HCT-15 colon
SNB-19 CNS = system: SNB-19 CNS
OVCAR-8 ovarian = system: OVCAR-8 ovarian
SF-539 CNS = system: SF-539 CNS
UACC-62 melanoma = system: UACC-62 melanoma
MCF7 breast = system: MCF7 breast
OVCAR-3 ovarian = system: OVCAR-3 ovarian
KM12 colon = system: KM12 colon
RPMI-8226 leukemia = system: RPMI-8226 leukemia
NCI-H23 lung = system: NCI-H23 lung
A549 NSCLC = system: A549 NSCLC
HT29 colon = system: HT29 colon
OVCAR-5 ovarian = system: OVCAR-5 ovarian
RXF 393 renal = system: RXF 393 renal
SF-268 CNS = system: SF-268 CNS
PC-3 prostate = system: PC-3 prostate
MALME-3M melanoma = system: MALME-3M melanoma
SK-MEL-2 melanoma = system: SK-MEL-2 melanoma
MDA-MB-231 breast = system: MDA-MB-231 breast
SF-295 CNS = system: SF-295 CNS
HCC-2998 colon = system: HCC-2998 colon
CAKI-1 renal = system: CAKI-1 renal
MDA-MB-435 = system: MDA-MB-435
EKVX NSCLC = system: EKVX NSCLC
HS 578T breast = system: HS 578T breast
SN12C renal = system: SN12C renal
T-47D breast = system: T-47D breast
UACC-257 melanoma = system: UACC-257 melanoma
SK-OV-3 ovarian = system: SK-OV-3 ovarian
SW-620 colon = system: SW-620 colon
BT-549 breast = system: BT-549 breast
NCI-H460 lung = system: NCI-H460 lung
U251 CNS = system: U251 CNS
IGROV1 ovarian = system: IGROV1 ovarian
HL-60(TB) leukemia = system: HL-60(TB) leukemia
HOP-92 NSCLC = system: HOP-92 NSCLC
COLO 205 colon = system: COLO 205 colon
NCI-H522 lung = system: NCI-H522 lung
MDA-N = system: MDA-N
HOP-62 NSCLC = system: HOP-62 NSCLC
NCI/ADR-RES ovarian = system: NCI/ADR-RES ovarian
UO-31 renal = system: UO-31 renal
786-0 renal = system: 786-0 renal
NCI-H226 lung = system: NCI-H226 lung
CCRF-CEM leukemia = system: CCRF-CEM leukemia
SK-MEL-5 melanoma = system: SK-MEL-5 melanoma
SR leukemia = system: SR leukemia

CCCCSC1=N/C(=C\c2ccccc2O)C(=O)N1
TGI (A498 renal): > 100 µM
TGI (DU-145 prostate): > 100 µM
TGI (OVCAR-4 ovarian): > 100 µM
TGI (SNB-75 CNS): > 100 µM
TGI (K-562 leukemia): > 100 µM
TGI (SK-MEL-28 melanoma): > 100 µM
TGI (MOLT-4 leukemia): > 100 µM
TGI (ACHN renal): > 100 µM
TGI (TK-10 renal): > 100 µM
TGI (HCT-116 colon): > 100 µM
TGI (LOX IMVI melanoma): > 100 µM
TGI (M14 melanoma): > 100 µM
TGI (HCT-15 colon): > 100 µM
TGI (SNB-19 CNS): > 100 µM
TGI (OVCAR-8 ovarian): > 100 µM
TGI (SF-539 CNS): > 100 µM
TGI (UACC-62 melanoma): > 100 µM
TGI (MCF7 breast): > 100 µM
TGI (OVCAR-3 ovarian): > 100 µM
TGI (KM12 colon): > 100 µM
TGI (RPMI-8226 leukemia): > 100 µM
TGI (NCI-H23 lung): > 100 µM
TGI (A549 NSCLC): > 100 µM
TGI (HT29 colon): > 100 µM
TGI (OVCAR-5 ovarian): > 100 µM
TGI (RXF 393 renal): > 100 µM
TGI (SF-268 CNS): > 100 µM
TGI (PC-3 prostate): 92.6 µM
TGI (MALME-3M melanoma): > 100 µM
TGI (SK-MEL-2 melanoma): > 100 µM
TGI (MDA-MB-231 breast): > 100 µM
TGI (SF-295 CNS): > 100 µM
TGI (HCC-2998 colon): > 100 µM
TGI (CAKI-1 renal): > 100 µM
TGI (MDA-MB-435): > 100 µM
TGI (EKVX NSCLC): > 100 µM
TGI (HS 578T breast): > 100 µM
TGI (SN12C renal): > 100 µM
TGI (T-47D breast): > 100 µM
TGI (UACC-257 melanoma): > 100 µM
TGI (SK-OV-3 ovarian): > 100 µM
TGI (SW-620 colon): > 100 µM
TGI (BT-549 breast): > 100 µM
TGI (NCI-H460 lung): > 100 µM
TGI (U251 CNS): > 100 µM
TGI (IGROV1 ovarian): > 100 µM
TGI (HL-60(TB) leukemia): > 100 µM
TGI (HOP-92 NSCLC): > 100 µM
TGI (COLO 205 colon): > 100 µM
TGI (NCI-H522 lung): > 100 µM
TGI (MDA-N): > 100 µM
TGI (HOP-62 NSCLC): > 100 µM
TGI (NCI/ADR-RES ovarian): > 100 µM
TGI (UO-31 renal): > 100 µM
TGI (786-0 renal): > 100 µM
TGI (NCI-H226 lung): > 100 µM

COC(=O)C(Cc1c[nH]c2ccccc12)NC(=O)C(Cc1cnc[nH]1)NC(=O)C1CCC(=O)N1C(=O)OCc1ccccc1 (stereo not given)
TGI (A498 renal): 68.3 µM
TGI (SNB-75 CNS): > 100 µM
TGI (K-562 leukemia): > 100 µM
TGI (SK-MEL-28 melanoma): > 100 µM
TGI (MOLT-4 leukemia): > 100 µM
TGI (ACHN renal): > 100 µM
TGI (TK-10 renal): > 100 µM
TGI (HCT-116 colon): > 100 µM
TGI (M14 melanoma): > 100 µM
TGI (SNB-19 CNS): > 100 µM
TGI (OVCAR-8 ovarian): > 100 µM
TGI (UACC-62 melanoma): > 100 µM
TGI (MCF7 breast): > 100 µM
TGI (KM12 colon): > 100 µM
TGI (RPMI-8226 leukemia): > 100 µM
TGI (NCI-H23 lung): > 100 µM
TGI (A549 NSCLC): > 100 µM
TGI (HT29 colon): > 100 µM
TGI (OVCAR-5 ovarian): > 100 µM
TGI (RXF 393 renal): > 100 µM
TGI (PC-3 prostate): > 100 µM
TGI (MALME-3M melanoma): > 100 µM
TGI (SK-MEL-2 melanoma): > 100 µM
TGI (HCC-2998 colon): > 100 µM
TGI (EKVX NSCLC): > 100 µM
TGI (HS 578T breast): > 100 µM
TGI (CCRF-CEM leukemia): > 100 µM
TGI (T-47D breast): > 100 µM
TGI (UACC-257 melanoma): > 100 µM
TGI (SW-620 colon): > 100 µM
TGI (BT-549 breast): > 100 µM
TGI (NCI-H460 lung): > 100 µM
TGI (U251 CNS): > 100 µM
TGI (IGROV1 ovarian): > 100 µM
TGI (HL-60(TB) leukemia): > 100 µM
TGI (HOP-92 NSCLC): > 100 µM
TGI (COLO 205 colon): > 100 µM
TGI (MDA-N): > 100 µM
TGI (SK-MEL-5 melanoma): > 100 µM
TGI (HOP-62 NSCLC): > 100 µM
TGI (UO-31 renal): > 100 µM
TGI (786-0 renal): > 100 µM
TGI (SR leukemia): > 100 µM
TGI (NCI-H226 lung): > 100 µM
